≈ marks a conversion by molar mass, not a printed value.
Columns and labels:
[1] = test system: human oral epidermoid carcinoma KB cells; assay: Growth inhibitory effect against KB cells (MTT, 72 h); type: cell-based; settings: absorbance 590 nm
Method: Growth Inhibitory Effect (IC50) of Compounds Obtained in Examples Against KB Cells Human oral epidermoid carcinoma KB cells (1×10^4 cells/ml) were transferred to a 96-well microwell plate at 0.1 ml per well and subjected to stationary culture at 37° C. with 5% CO2 for 24 hours. To the resulting culture was added a 10% MEM (Nissui Junyaku) solution of a compound of an Example, followed by stationary culture at 37° C. with 5% CO2 for 72 hours. The culture broth was then removed using a micropipette. 0.1 ml of a 10% minimal essential medium solution containing 3-(4,5-dimethylthiazol-2-yl)-2,5-diphenyl-2H-tetrazolium bromide (Dojin Kagaku) (1.0 mg/ml) was added, followed by cultivation at 37° C. for 4 hours. 0.1 ml of a 10% sodium dodecylsulfate (Wako Pure Chemical) was then added, followed by cultivation at 37° C. for 24 hours.

[2] = test system: Sarcoma 180 cells; assay: Antitumor activity on Sarcoma 180 cells in ICR mice, intraperitoneal; type: in vivo; settings: 0.1 mg/mouse, 8 times, tumor weight after 21 days
Method: (§1) Antitumor Activity of Compounds Obtained in Examples on Sarcoma 180 Cells
(2) Sarcoma 180 cells were subcutaneously transplanted to the side of the back of ICR mice (5 mice per group) at 1×10^6 cells per animal. 8, 9, 12, 13, 15, 16, 19 and 20 days after the transplantation (a total of 8 times), a compound of an Example, dissolved in physiological saline, was intraperitoneally administered (0.1 mg/mouse). After 21 days, the tumor tissue was excised and weighed.

[3] = test system: CDF-1 mice; assay: Acute toxicity test in mice, single intraperitoneal administration; type: in vivo; settings: single i.p., female CDF-1 mice, 7 days observation
Method: Acute Toxicity Test with Compounds of Example in Mice
0.2 ml of a solution of a compound of the Example in physiological saline was intraperitoneally administered once to female CDF-1 mice (5 weeks in age, 5 animals per group). Observation was conducted for 7 days following the administration.

[4] = test system: Sarcoma 180 cells; assay: Antitumor activity on Sarcoma 180 cells in ICR mice, oral; type: in vivo; settings: 0.3 mg/mouse, 9 times, tumor weight after 21 days
Method: as §1
(1) Sarcoma 180 cells were subcutaneously transplanted to the side of the back of ICR mice (5 mice per group) at 1×10^6 cells per animal. 8, 9, 10, 13, 14, 15, 16, 17 and 20 days after the transplantation (a total of 9 times), the compound of Example 1, dissolved in physiological saline, was orally administered (0.3 mg/mouse). After 21 days, the tumor tissue was excised and weighed.

[5] = cited from earlier work

| SMILES | IC50 [1] [µg/mL] | also measured |
| --- | --- | --- |
| CCCCCCCCCCCCCCCCCCOCC(COCCOCC[n+]1cccc(CCC(=O)[O-])c1)Oc1ncccn1 (stereo not shown) [Example 12, 3-[1-[2-[2-[3-octadecyloxy-2-(pyrimidin-2-yloxy)-propoxy]ethoxy]ethyl]pyridinio-3-yl]propionate] | 0.63 (≈ 0.978 µM) | Growth inhibition ratio (1-T/C %) [2]: 81%; Number of mice that died/number of subject mice ([3]; 100 mg/kg): 0/5 |
| CCCCCCCCCCCCCCCCCCOCC(COCCOCC[n+]1ccn(CCCCCC(=O)[O-])c1)Oc1ncccn1 (stereo not shown) [Example 1, 6-[3-[2-[2-[3-octadecyloxy-2-(pyrimidin-2-yloxy)-propoxy]ethoxy]ethyl]imidazolio-1yl]hexanoate] | 0.16 (≈ 0.237 µM) | Growth inhibition ratio (1-T/C %) [4]: 65%; Number of mice that died/number of subject mice ([3]; 50 mg/kg): 0/5 |
| CCCCCCCCCCCCCCCCCCOCC(COP(=O)([O-])OCC[N+](C)(C)C)OC (stereo not shown) [phospholipid represented by formula (II)] |  | antitumor activities ([5]; Anticancer Research, 1, 345 (1981)): possess antitumor activities; adverse effects ([5]; clinical trial limitation, similarity to PAF): various adverse effects such as bronchostenosis, platelet aggregation and hypotension |
| CCCCCCCCCCCCCCCCCCOCC(COCCOCC[N+](C)(C)CCCCCC(=O)[O-])Oc1ncccn1 (stereo not shown) [Example 9, 6-[N,N-dimethyl-N-[2-[2-[3-octadecyloxy-2-(pyrimidin-2-yloxy)propoxy]ethoxy]ethyl]ammonio]-hexanoate] | 1.25 (≈ 1.92 µM) | Number of mice that died/number of subject mice ([3]; 100 mg/kg): 0/5 |
| CCCCCCCCCCCCCCCCCCOCC(COCCOCC[n+]1ccn(CC(=O)[O-])c1)OCCCCCC (stereo not shown) [Example 6, 2-[3-[2-[2-[2-hexyloxy-3-octadecyloxypropoxy]-ethoxy]ethyl]imidazolio-1-yl]acetate] | 2.5 (≈ 4 µM) | Number of mice that died/number of subject mice ([3]; 50 mg/kg): 0/5 |
| CCCCCCCCCCCCCCCCCCOCC(COCCOCC[n+]1ccn(CCCC(=O)[O-])c1)Oc1ncccn1 (stereo not shown) [Example 8, 4-[3-[2-[2-[3-octadecyloxy-2-(pyrimidin-2-yloxy)-propoxy]ethoxy]ethyl]imidazolio-1-yl]butyrate] | 1.25 (≈ 1.93 µM) | Growth inhibition ratio (1-T/C %) [2]: 66%; Number of mice that died/number of subject mice ([3]; 100 mg/kg): 0/5 |
| CCCCCCCCCCCCCCCCCCOCC(COCCOCCOCC[n+]1ccn(CCCCCC(=O)[O-])c1)Oc1ncccn1 (stereo not shown) [Example 20, 6-[3-[2-[2-[2-[3-octadecyloxy-2-(pyrimidin-2-yloxy)propoxy]ethoxy]ethoxy]ethyl]imidazolio-1-yl]-hexanoate] | 0.32 (≈ 0.445 µM) | Number of mice that died/number of subject mice ([3]; 100 mg/kg): 0/5 |
| CCCCCCCCCCCCCCCCCCOCC(COCCOCC[n+]1ccn(CCCCc2ccc(C(=O)[O-])cc2)c1)Oc1ncccn1 (stereo not shown) [Example 10, 4-[4-[3-[2-[2-[3-octadecyloxy-2-(pyrimidin-2-yloxy)-propoxy]ethoxy]ethyl]imidazolio-1-yl]butyl]benzoate] | 0.32 (≈ 0.434 µM) | Number of mice that died/number of subject mice ([3]; 50 mg/kg): 0/5 |
| CCCCCCCCCCCCCCCCCCOCC(COCCOCCOCC[n+]1ccn(CCCC(=O)[O-])c1)Oc1ncccn1 (stereo not shown) [Example 21, 4-[3-[2-[2-[2-[3-octadecyloxy-2-(pyrimidin-2-yloxy)propoxy]ethoxy]ethoxy]ethyl]imidazolio-1-yl]-butyrate] | 0.63 (≈ 0.912 µM) | Number of mice that died/number of subject mice ([3]; 100 mg/kg): 0/5 |
| CCCCCCCCCCCCCCCCCCOCC(COCCOCC[N+](C)(C)CCCCCC(=O)[O-])OCC(C)=O (stereo not shown) [Example 5, 6-[N,N-dimethyl-N-[2-[2-[3-octadecyloxy-2-(2-oxopropoxy)propoxy]ethoxy]ethyl]ammonio]hexanoate] | 2.5 (≈ 3.97 µM) | Number of mice that died/number of subject mice ([3]; 50 mg/kg): 0/5 |
| CCCCCCCCCCCCCCCCCCOCC(COCCOCC[n+]1ccn(CCCCCC(=O)[O-])c1)OCC(C)=O (stereo not shown) [Example 3] | 0.32 (≈ 0.49 µM) | Number of mice that died/number of subject mice ([3]; 50 mg/kg): 0/5 |

Now from value to molecule, other results behind:

| IC50 [1] [µg/mL] | SMILES | also measured |
| --- | --- | --- |
| 0.63 (≈ 0.933 µM) | CCCCCCCCCCCCCCCCCCOCC(COCCOCC[n+]1ccn(CCC(C)(C)C(=O)[O-])c1)Oc1ncccn1 (stereo not shown) [Example 16, 2,2-dimethyl-4-[3-[2-[2-[3-octadecyloxy-2-(pyrimidin-2-yloxy)propoxy]ethoxy]ethyl]imidazolio-1-yl]butyrate] |  |
| 0.32 (≈ 0.472 µM) | CCCCCCCCCCCCCCCCCCOCC(COCCOCC[N+]1(CCCCCC(=O)[O-])CCCC1)Oc1ncccn1 (stereo not shown) [Example 17, 6-[1-[2-[2-[3-octadecyloxy-2-(pyrimidin-2-yloxy)-propoxy]ethoxy]ethyl]pyrrolidinio-1-yl]hexanoate] |  |
| 0.32 | CCCCCCCCCCCCCCCCCCOCC(COCCOCC[n+]1ccn(CCCCCC(=O)OC)c1)Oc1ncccn1.[Cl-] (stereo not shown) [Example 14, 1-(5-methoxycarbonylpentyl)-3-[2-[2-[3-octadecyloxy-2-(pyrimidin-2-yloxy)propoxy]ethoxy]-ethyl]imidazolium chloride] |  |
| 0.32 (≈ 0.431 µM) | CCCCCCCCCCCCCCCCCCOCC(COCCOCC[n+]1ccn(CCCCC2CCC(C(=O)[O-])CC2)c1)Oc1ncccn1 (stereo not shown) [Example 11, 4-[4-[3-[2-[2-[3-octadecyloxy-2-(pyrimidin-2-yloxy)propoxy]ethoxy]ethyl]imidazolio-1-yl]butyl]-cyclohexylcarboxylate] |  |
| 0.63 | CCCCCCCCCCCCCCCCCCOCC(COCCOCC[n+]1cccc(CCCOC(=O)CCC(=O)[O-])c1)Oc1ncccn1 (stereo not shown) [Example 19, 3-[1-[2-[2-[3-octadecyloxy-2-(pyrimidin-2-yloxy)-propoxy]ethoxy]ethyl]pyridinio-3-yl]propyl succinate] |  |
| 0.63 (≈ 1 µM) | CCCCCCCCCCCCCCCCCCOCC(COCCCC[n+]1cccc(CCC(=O)[O-])c1)Oc1ncccn1 (stereo not shown) [Example 22, 3-[1-[4-[3-octadecyloxy-2-(pyrimidin-2-yloxy)-propoxy]butyl]pyridinio-3-yl]propionate] |  |
| 0.63 | CCCCCCCCCCCCCCCCCCOCC(COCCOCC[n+]1ccn(CCC(C)(C)C(=O)OCC)c1)Oc1ncccn1 (stereo not shown) [Example 15, 1-(3-ethoxycarbonyl-3-methyl)butyl-3-[2-[2-[3-octadecyloxy-2-(pyrimidin-2-yloxy)propoxy]-ethoxy]ethylimidazolium chloride] |  |
| 0.32 (≈ 0.496 µM) | O=C([O-])CCCn1cc[n+](CCOCCOCC(COCCCCCCCCCCCCC2CCCCC2)Oc2ncccn2)c1 (stereo not shown) [Example 24, 4-[3-[2-[2-[3-(12-cyclohexyldodecyloxy)-2-(pyrimidin-2-yloxy)propoxy]ethoxy]ethyl]imidazolio-1-yl]butyrate] |  |
| 0.32 | CCCCCCCCCCCCCCCCCCOCC(COCCOCC[n+]1ccn(CCCOC(=O)CCC(=O)[O-])c1)Oc1ncccn1 (stereo not shown) [Example 18, 3-[3-[2-[2-[3-octadecyloxy-2-(pyrimidin-2-yloxy)-propoxy]ethoxy]ethyl]imidazolio-1-yl]propyl succinate] |  |
| 0.16 (≈ 0.223 µM) | CCCCCCCCCCCCCCCCCCOCC(COCCOCC[n+]1ccn(CCCCCCCCC(=O)[O-])c1)Oc1ncccn1 (stereo not shown) [Example 7] |  |
| 0.32 (≈ 0.488 µM) | CCCCCCCCCCCCCCCCCCOCC(COCCCC[n+]1cccc(CCCCC(=O)[O-])c1)Oc1ncccn1 (stereo not shown) [Example 23, 5-[1-[4-[3-octadecyloxy-2-(pyrimidin-2-yloxy)-propoxy]butyl]pyridinio-3-yl]pentanoate] |  |
| 0.16 (≈ 0.238 µM) | O=C([O-])CCCCCn1cc[n+](CCOCCOCC(COCCCCCCCCCCCCC2CCCCC2)Oc2ncccn2)c1 (stereo not shown) [Example 25, 6-[3-[2-[2-[3-(12-cyclohexyldodecyloxy)-2-(pyrimidin-2-yloxy)propoxy]ethoxy]ethyl]imidazolio-1-yl]hexanoate] |  |

— patent US5081245A, “Carboxylic acid derivatives” (Takeda Chemical Industries, Ltd., priority 1988, dated 1992)
